Reference: publication PMC4131897 (Biochemistry, 2014)
Substitutions are numbered along the chain they refer to.

Assays:
Format in all cases: binding
[1] = molecular target: T1, BjPutA (proline utilization A) (Bradyrhizobium diazoefficiens, UniProt Q89E26, T348Y); assay: intrinsic tryptophan fluorescence quenching
T1 sequence (Q89E26 1-999 T348Y): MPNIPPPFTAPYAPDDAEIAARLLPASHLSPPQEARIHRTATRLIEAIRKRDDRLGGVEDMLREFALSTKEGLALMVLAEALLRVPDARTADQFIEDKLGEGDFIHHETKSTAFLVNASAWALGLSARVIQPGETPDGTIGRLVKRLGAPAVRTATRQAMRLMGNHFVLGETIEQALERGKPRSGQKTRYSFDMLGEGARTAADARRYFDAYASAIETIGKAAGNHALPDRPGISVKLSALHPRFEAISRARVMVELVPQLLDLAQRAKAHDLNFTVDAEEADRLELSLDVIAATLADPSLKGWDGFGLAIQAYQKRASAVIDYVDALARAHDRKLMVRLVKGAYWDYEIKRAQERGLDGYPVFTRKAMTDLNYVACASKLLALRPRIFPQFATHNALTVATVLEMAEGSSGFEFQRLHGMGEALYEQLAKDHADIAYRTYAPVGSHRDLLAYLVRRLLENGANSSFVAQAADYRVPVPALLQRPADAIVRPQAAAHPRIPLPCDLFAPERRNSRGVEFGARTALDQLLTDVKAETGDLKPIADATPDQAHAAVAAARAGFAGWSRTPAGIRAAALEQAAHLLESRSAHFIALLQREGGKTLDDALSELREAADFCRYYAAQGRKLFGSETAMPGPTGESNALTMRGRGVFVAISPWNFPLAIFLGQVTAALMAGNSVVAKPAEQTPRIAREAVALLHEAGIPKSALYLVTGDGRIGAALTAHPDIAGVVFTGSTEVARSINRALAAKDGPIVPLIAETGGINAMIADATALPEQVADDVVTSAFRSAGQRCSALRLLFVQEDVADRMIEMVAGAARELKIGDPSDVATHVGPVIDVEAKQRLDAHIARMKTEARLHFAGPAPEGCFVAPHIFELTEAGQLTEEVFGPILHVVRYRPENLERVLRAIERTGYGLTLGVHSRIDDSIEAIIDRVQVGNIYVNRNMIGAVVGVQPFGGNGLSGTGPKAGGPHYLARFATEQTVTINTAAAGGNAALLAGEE

[2] = molecular target: T2, BjPutA (proline utilization A) (Bradyrhizobium diazoefficiens, UniProt Q89E26, D779W); assay: intrinsic tryptophan fluorescence quenching
T2 sequence (Q89E26 1-999 D779W): T1 sequence (Q89E26 1-999 T348Y) with Y348T, D779W

[3] = molecular target: T3, BjPutA (proline utilization A) (Bradyrhizobium diazoefficiens, UniProt Q89E26); assay: intrinsic tryptophan fluorescence quenching, single-site fit
T3 sequence (Q89E26 1-999): T1 sequence (Q89E26 1-999 T348Y) with Y348T

Kd [1]: 0.75 ± 0.06 µM
Kd [2]: 0.78 ± 0.05 µM
Kd [3]: 0.6 ± 0.04 µM
Structure (SMILES): NC(=O)c1ccc[n+]([C@@H]2O[C@H](COP(=O)(O)OP(=O)(O)OC[C@H]3O[C@@H](n4cnc5c(N)ncnc54)[C@H](O)[C@@H]3O)[C@@H](O)[C@H]2O)c1 [NAD^+]
